Values joined by “and” are separate entries in the source; they are usually repeats but may differ in a detail not shown here. Equal entries are not always repeated.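 Tested at 5 concentrations; 48 h exposure; 96-well plates; endpoints linearly interpolated, else capped at highest concentration. GI50: concentration for 50% inhibition of growth. TGI is the concentration that stops growth completely.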
Experiments:
Assay in all cases: DTP human tumour cell line panel, 48 h
UACC-257 melanoma = tested on: UACC-257 melanoma
NCI-H460 lung = tested on: NCI-H460 lung
HL-60(TB) leukemia = tested on: HL-60(TB) leukemia
OVCAR-4 ovarian = tested on: OVCAR-4 ovarian
SNB-19 CNS = tested on: SNB-19 CNS
HCT-15 colon = tested on: HCT-15 colon
UACC-62 melanoma = tested on: UACC-62 melanoma
COLO 205 colon = tested on: COLO 205 colon
K-562 leukemia = tested on: K-562 leukemia
PC-3 prostate = tested on: PC-3 prostate

SMILES	GI50 (UACC-257 melanoma)	TGI (UACC-257 melanoma)	TGI (NCI-H460 lung)	TGI (HL-60(TB) leukemia)	TGI (OVCAR-4 ovarian)	TGI (SNB-19 CNS)	GI50 (HCT-15 colon) [µM]	TGI (HCT-15 colon)	GI50 (UACC-62 melanoma)	TGI (UACC-62 melanoma)	TGI (COLO 205 colon)	TGI (K-562 leukemia)	GI50 (PC-3 prostate) [µM]	TGI (PC-3 prostate) [µM]	GI50 (NCI-H460 lung) [µM]	GI50 (COLO 205 colon) [µM]	GI50 (SNB-19 CNS) [µM]	GI50 (K-562 leukemia) [µM]	GI50 (HL-60(TB) leukemia) [µM]	GI50 (OVCAR-4 ovarian) [µM]
COc1cc(C2c3cc4c(cc3[C@@H](NCCN(C)C)C3COC(=O)[C@H]23)OCO4)cc(OC)c1O (stereo partly drawn)	0.526 µM and 1.62 µM	4.14 µM and 6.16 µM	0.135 µM and 0.326 µM	0.124 µM and 0.121 µM	5.19 µM and 13.3 µM	5.18 µM and 9.62 µM	1.02	2.63 µM	0.0319 µM and 0.088 µM	0.319 µM and 0.834 µM										
CCOc1ccccc1N=Nc1ccc2oc(=O)c(C(C)=O)cc2c1		> 100 µM		> 100 µM	> 100 µM	> 100 µM		> 100 µM		> 100 µM	> 100 µM	> 100 µM								
Cc1ccc(C(=O)CC2(O)C(=O)Nc3c(C)cc(Cl)cc32)cc1 (stereo not drawn)		> 100 µM	> 100 µM	> 100 µM	> 100 µM	> 100 µM		> 100 µM			> 100 µM	> 100 µM								
O=[N+]([O-])c1ccc(C2=Nc3ccccc3S(=O)C(c3ccccc3)C2)cc1 (stereo not drawn)		55.3 µM	71 µM	39.1 µM	42 µM	68 µM		76.2 µM		29.9 µM	40 µM	34.5 µM								
Nc1ccc2n[se]nc2c1		> 100 µM	> 100 µM	> 100 µM	> 100 µM	> 100 µM		> 100 µM		> 100 µM		> 100 µM								
CN(C)CCNC(=O)c1cccc2c1nc(-c1ccc(F)cc1)c1ccccc12		11.2 µM	12 µM	10.9 µM	19.1 µM	20.2 µM		13.9 µM		14.8 µM	14.3 µM	11.7 µM								
O=C1c2ccccc2C(=O)c2cc3c(cc21)CS(=O)C3		> 100 µM	> 100 µM	> 100 µM	> 100 µM	> 100 µM				> 100 µM	> 100 µM	> 100 µM								
N#CCCn1[nH]c(=O)c(Cl)c(Cl)c1=O		37.7 µM	28.3 µM	35.5 µM	32 µM	29 µM		24.6 µM			57.3 µM	28.1 µM								
CC(C)(C)c1cc(CCC(=O)Nc2ccc(Cl)cc2)[nH]c(=S)n1		> 100 µM	> 100 µM	> 100 µM	> 100 µM	> 100 µM		> 100 µM		> 100 µM	> 100 µM	> 100 µM								
O=S1(=O)N2CN3CN(C2)CN1C3		94.3 µM	272 µM	62.8 µM	80.8 µM	856 µM		53.4 µM and 67.2 µM		49.2 µM	> 31.6 µM and 73.8 µM	> 31.6 µM and 169 µM								
CC(=O)C1CCN(c2ccccc2)C1 (stereo not drawn)		> 100 µM	> 100 µM	> 100 µM	> 100 µM	> 100 µM				> 100 µM		> 100 µM								
Cn1cc(/C=C\[N+](=O)[O-])c2ccccc21	33.1 µM	> 100 µM	> 100 µM			> 100 µM	44.3	> 100 µM	83.6 µM	> 100 µM	> 100 µM	> 100 µM	35.5	> 100	38.6	42.3	75	34.8		
CCOC(=O)C(C)(NC(=O)c1ccc(NCc2ccc3nc(NC(=O)c4ccccc4)nc(NC(=O)c4ccccc4)c3c2)cc1)C(=O)OCC		36.4 µM	32.5 µM	> 100 µM	4.18 µM			> 100 µM		22.1 µM	> 100 µM									
O=C1C(c2ccccc2)=C(c2ccccc2)C(c2ccc(Cc3ccc(C4=C(c5ccccc5)C(=O)C(c5ccccc5)=C4c4ccccc4)cc3)cc2)=C1c1ccccc1		> 100 µM	> 100 µM	> 100 µM	> 100 µM	> 100 µM		> 100 µM		> 100 µM	> 100 µM	> 100 µM								
COc1ccccc1NC(=O)C1=C(C)NC(C)=C(C(=O)Nc2ccccc2OC)C1c1ccccc1[N+](=O)[O-]		47.5 µM	32.8 µM	45.3 µM	46.3 µM			27.5 µM		54.1 µM	31.6 µM	65 µM								
NC1NC=NC2C1N=CN2C1OC(CO)C2[O][Sn][O]C21 (stereo not drawn)	> 100 µM	> 100 µM	> 100 µM	> 100 µM	> 100 µM	> 100 µM	0.384	> 100 µM	> 100 µM	> 100 µM	> 100 µM	> 100 µM			> 100	> 100	> 100	> 100	> 100	> 100

SMILES	GI50 (UACC-257 melanoma)	TGI (UACC-257 melanoma)	TGI (NCI-H460 lung)	TGI (HL-60(TB) leukemia)	TGI (OVCAR-4 ovarian)	TGI (SNB-19 CNS)	GI50 (HCT-15 colon) [µM]	TGI (HCT-15 colon)	GI50 (UACC-62 melanoma)	TGI (UACC-62 melanoma)	TGI (COLO 205 colon)	TGI (K-562 leukemia)	GI50 (PC-3 prostate) [µM]	TGI (PC-3 prostate) [µM]	GI50 (NCI-H460 lung) [µM]	GI50 (COLO 205 colon) [µM]	GI50 (SNB-19 CNS) [µM]	GI50 (K-562 leukemia) [µM]	GI50 (HL-60(TB) leukemia) [µM]	GI50 (OVCAR-4 ovarian) [µM]
Nc1nncc2c1c(Br)cn2C1OC(CO)C(O)C1O (stereo not drawn)		> 100 µM	> 100 µM	> 100 µM	> 100 µM	> 100 µM		> 100 µM		> 100 µM	> 100 µM	> 100 µM								
CC(C)(CN1C(=O)C(Cl)=C(Cl)C1=O)CN1C(=O)C(Cl)=C(Cl)C1=O		29 µM	> 77.3 µM	2.84 µM	43.4 µM	55 µM		48.8 µM		29.5 µM	8.66 µM	7.1 µM								
O=C(c1ccc(O)cc1O)C1C(c2ccc(O)cc2)OC(c2ccc(O)cc2)C1C(=O)c1ccc(O)cc1O (stereo not drawn)		39.7 µM	> 100 µM	39.4 µM	> 100 µM	45.2 µM														
Cc1cc(=O)oc2ccc(OC/C=C3\CCC(=O)O3)cc12	12.3 µM	28.7 µM	43 µM		3.13 µM	30.8 µM	3.5	11.5 µM	10.3 µM	22.8 µM	7.24 µM	> 100 µM	3.59	21.2	17.3	2.17	13	7.79		1.21
Cn1c(CBr)nc2c1C(=O)c1nc(CBr)[nH]c(=O)c1C2=O			> 100 µM					> 100 µM		> 100 µM	> 100 µM	> 100 µM								
COC1C2C[C@@H](O)CCC2C(C(=O)OCCl)C[C@H]1O (stereo partly drawn)		> 100 µM	> 100 µM	> 100 µM	> 100 µM	> 100 µM		> 100 µM		> 100 µM	> 100 µM	> 100 µM								
Cc1ccc(NC(=O)CCCC(=O)CC(=O)c2ccc(Br)cc2)cc1		> 100 µM	> 100 µM		> 100 µM	> 100 µM		> 100 µM		> 100 µM	> 100 µM	> 100 µM								
Cc1nc(N)nc(N)c1CCCCc1ccc(N)cc1		18.5 µM	13.6 µM	19.4 µM	25.8 µM	20.4 µM		18.4 µM		14.1 µM	28 µM	16.4 µM								
NC(=O)c1ccc2c(c1)-c1nc-2nc2[n-]c(nc3nc(nc4[n-]c(n1)c1ccc(C(N)=O)cc41)-c1ccc(C(N)=O)cc1-3)c1ccc(C(N)=O)cc21.[Co+2]	> 50 µM	> 50 µM	> 50 µM	> 50 µM	> 50 µM	> 50 µM	> 50	> 50 µM	> 50 µM	> 50 µM	> 50 µM	> 50 µM			> 50	> 50	> 50	46.6	7.12	> 50
Cc1ccc(NC(=O)CCc2nc(=S)[nH][nH]2)cc1		> 100 µM	> 100 µM	> 100 µM	> 100 µM	> 100 µM		> 100 µM		> 100 µM	> 100 µM	> 100 µM								
NC(N)=N/N=C/c1c(-c2ccsc2)nc2n1CCS2	20.8 µM	53.1 µM	> 100 µM			> 100 µM	24.7	72.7 µM	21.6 µM	69.9 µM	48.5 µM	65.8 µM	17.5	39.2	27.9	19.8	26.9	22.2		
CC(C)N(C(=O)C12C3C4C1C1C2C3C41C#N)C(C)C (stereo not drawn)		> 100 µM	> 100 µM	> 59 µM	> 100 µM	> 100 µM		> 100 µM		> 100 µM	> 100 µM	> 100 µM								
COc1cc[c]([Sn]([c]2ccc(OC)cc2)([c]2ccc(OC)cc2)[c]2ccc(OC)cc2)cc1			> 100 µM		62.8 µM	> 100 µM	> 100	> 100 µM	17.9 µM	69.3 µM	41.8 µM	56.1 µM			30.5	18.3	28.5	16.2		16.8
CN=c1ss/c(=N\C(=S)N(C)C)n1C		> 100 µM	> 100 µM	> 100 µM	> 100 µM	> 100 µM		> 100 µM		> 100 µM		> 100 µM								
CCCNC(=O)Nc1c([N+](=O)[O-])cc(C(F)(F)F)cc1[N+](=O)[O-]		> 100 µM	> 100 µM	82.7 µM	73.7 µM	> 100 µM		> 100 µM		> 100 µM		> 100 µM								
Nc1nnc2c(-c3ccccc3)[nH]nc2n1		> 100 µM	> 100 µM	> 100 µM	> 100 µM	> 100 µM		> 100 µM			> 100 µM	> 100 µM								
